Our source for the IFN-γ responses, peptide-specific recall response and IC50 values is article PMC2856764 (Human immunology, 2010).

Ends that are not written are not given here. Peptide text beside a SMILES is read from it.

Experiment [1] deals with CD8+ enriched human donor PBMC. The format is cell-based.
For a further experiment, the target named is HLA-A*3301 (Homo sapiens, UniProt P04439, A270S/D185E/E176V/E277Q/E87N/F33T/G231S/H175R/I121M/I218V/I322F/K168Q/K210R/L300P/L318F/M331R/P217A/Q86R/Q94H/R138Q/T323A/T345S/T97I/V358M/Y195H). The experiment can be described thus: biochemical. The format is binding.
Another experiment deals with HLA-A*1101 (Homo sapiens, UniProt P04439, A114D/D185E/E176A/F33Y/L180Q/S129P/T187R). Put plainly: biochemical. The class given is binding.
Sequence of HLA-A*1101 (P04439 25-365 limits assumed, stated change not applied): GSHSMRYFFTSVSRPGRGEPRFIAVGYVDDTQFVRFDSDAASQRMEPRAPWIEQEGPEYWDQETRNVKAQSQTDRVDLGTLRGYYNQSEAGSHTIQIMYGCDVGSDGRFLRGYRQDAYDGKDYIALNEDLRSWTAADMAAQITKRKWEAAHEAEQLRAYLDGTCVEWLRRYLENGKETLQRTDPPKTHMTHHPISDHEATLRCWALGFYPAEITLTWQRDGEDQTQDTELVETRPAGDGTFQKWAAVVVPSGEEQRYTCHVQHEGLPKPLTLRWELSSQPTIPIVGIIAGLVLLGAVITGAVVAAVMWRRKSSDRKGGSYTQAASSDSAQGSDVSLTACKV
The target in a further experiment is HLA-A*0301 (Homo sapiens, UniProt P04439). Put plainly: biochemical. The format is binding.
A further experiment deals with HLA-A*3101 (Homo sapiens, UniProt P04439, A270S/D185E/E176V/E277Q/F33T/G231S/G80R/H175R/I121M/I218V/I322F/K168Q/L300P/L318F/M331R/P217A/Q94H/R138Q/T323A/T345S/T97I/V358M). The experiment can be described thus: biochemical. The class given is binding.
The next experiment addresses HLA-A*6801 (Homo sapiens, UniProt P04439, A269V/D185E/E176V/E277Q/E87N/F33Y/G231S/I121M/I166T/I218V/L180W/L300P/L318F/N151K/P208A/P217A/Q86R/R169H/T345S). Put plainly: biochemical. The format is binding.

With `CC(C)C[C@H](NC(=O)[C@H](CS)NC(=O)[C@H](CO)NC(=O)[C@@H](N)CCCCN)C(=O)N1CCC[C@H]1C(=O)N[C@@H](C)C(=O)N[C@@H](CS)C(=O)N[C@H](C(=O)N[C@@H](Cc1ccc(O)cc1)C(=O)O)C(C)C` [NP.273] (H-KSCLPACVY-OH; N-terminus and C-terminus assumed), in experiment [1], the IFN-γ responses is 590; 1200; 300 SFC/10^6 CD8^+ cells and the peptide-specific recall response is listed as “Significant”.
The matching figures for `CC(C)C[C@H](NC(=O)CNC(=O)[C@H](Cc1ccc(O)cc1)NC(=O)[C@@H](NC(=O)[C@H](CS)NC(=O)[C@H](C)NC(=O)[C@@H]1CCCN1C(=O)[C@H](CC(C)C)NC(=O)[C@@H](N)CS)C(C)C)C(=O)O` [NP.275] (H-CLPACVYGL-OH; N-terminus and C-terminus assumed): 350; 986; 2200 SFC/10^6 CD8^+ cells and “responses induced”.
As for ASCMGLIYNR [M1.125], the concentration for half-maximal inhibition (IC50) (commonly the concentration at which inhibition is half-maximal) at HLA-A*3301 was found to be 445 nM; against HLA-A*1101, 32 nM; against HLA-A*0301, 816 nM; against HLA-A*3101, 7 nM; against HLA-A*6801, 391 nM.
The matching figures for GTFEFTSFFY [PB1.488]: 5410 nM, 1 nM, 16 nM, 242 nM and 100 nM.
With KFLPDLYDYK [PA.104], the half-maximal inhibitory concentration (IC50) against HLA-A*3301 was > 10000 nM; against HLA-A*1101, 22 nM; at HLA-A*0301 it was 255 nM; against HLA-A*3101, 2410 nM; on HLA-A*6801 it was 507 nM.
In the same order, the values of KLVGINMSKK [PB1.471] are > 10000 nM, 315 nM, 14 nM, 518 nM and 1610 nM.
RLFFKCIYRR [M2.45]: the half-maximal inhibitory concentration (IC50) against HLA-A*3301 is 238 nM; on HLA-A*1101, 294 nM; against HLA-A*0301 it was 135 nM; at HLA-A*3101 it was 5 nM; against HLA-A*6801, 88 nM.
In the same order, the values of SFSFGGFTFK [PB2.322] are 85 nM, 7 nM, 74 nM, 19 nM and 60 nM.
Consider SVQPTFSVQR [NP.407], for which the IC50 at HLA-A*3301 was 181 nM; against HLA-A*1101 it was 37 nM; on HLA-A*0301, > 10000 nM; on HLA-A*3101, 21 nM; against HLA-A*6801, 84 nM.
In the same order, the values of SVQRNLPFER [NP.413] are 321 nM, 411 nM, > 10000 nM, 104 nM and 19 nM.
Consider VLRGFLILGK [PB2.690], for which the IC50 is > 10000 nM at HLA-A*3301; 460 nM against HLA-A*1101; 10 nM against HLA-A*0301; 85 nM at HLA-A*3101; 1160 nM on HLA-A*6801.
